Assay results published in patent US20220289691A1, “5-AMINO-SUBSTITUTED PYRAZOLES AND TRIAZOLES AS PEST CONTROL AGENTS” (Bayer Aktiengesellschaft, priority 2019, published 2022).

Key:
Type in all cases: in vivo
[1] = tested on: Ctenocephalides felis; test: Ctenocephalides felis in vitro contact test with adult cat fleas; conditions: 5 μg/cm^2 (=500 g of ai/ha), after 48 h, read-out: efficacy (fleas dead or moribund)
Method: Ctenocephalides felis—In Vitro Contact Tests with Adult Cat Fleas
For the coating of the test tubes, 9 mg of active compound are first dissolved in 1 ml of acetone p.a. and then diluted to the desired concentration with acetone p.a. 250 μl of the solution are distributed homogeneously on the inner walls and the base of a 25 ml glass tube by turning and rocking on an orbital shaker (rocking rotation at 30 rpm for 2 h). With 900 ppm of active compound solution and internal surface area 44.7 cm^2, given homogeneous distribution, an area-based dose of 5 μg/cm^2 is achieved.
After the solvent has evaporated off, the tubes are populated with 5-10 adult cat fleas (Ctenocephalides felis), sealed with a perforated plastic lid and incubated in a horizontal position at room temperature and ambient humidity. After 48 h, efficacy is determined. To this end, the tubes are stood upright and the fleas are knocked to the base of the tube. Fleas which remain motionless at the base or move in an uncoordinated manner are considered to be dead or moribund.
100% efficacy means that all the fleas were dead or moribund. 0% efficacy means that no fleas were harmed.

[2] = tested on: Spodoptera frugiperda; test: Spodoptera frugiperda spray test; conditions: foliar, 168 h, maize leaf discs, after 7 days, read-out: efficacy (caterpillars killed)
Method in brief: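 Compound was dissolved in acetone/dimethylformamide and diluted with water containing 1000 ppm alkylaryl polyglycol ether emulsifier to test concentrations. Maize leaf discs were sprayed, dried and infested with fall armyworm caterpillars. Efficacy (% caterpillars killed) was scored after 7 days.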

[3] = tested on: Diabrotica balteata; test: Diabrotica balteata spray test; conditions: 168 h, beetle larvae on wheat, after 7 days, read-out: efficacy (wheat plant growth); for pest or weed control at 100 g/ha: 100 g/ha (=32 μg/cavity); for pest or weed control at 500 g/ha: 500 g/ha (=160 μg/cavity); for pest or weed control at 125 g/ha: 125 g/ha (=40 μg/cavity)
Method in brief: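 Germinated wheat seedlings in agar multiwell plates were sprayed with compound in acetone/DMF with emulsifier-containing water, then infested with 10-20 Diabrotica balteata larvae. After 7 days, efficacy (%) scored by plant growth: 100% equals untreated, uninfested control, 0% no plants grown.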

[4] = tested on: Meloidogyne incognita; test: Meloidogyne incognita test; conditions: 336 h, lettuce, after 14 days, read-out: nematicidal efficacy (formation of galls)
Method: Meloidogyne incognita Test Solvent: 125.0 parts by weight of acetone
To produce a suitable active compound formulation, 1 part by weight of active compound is mixed with the stated amount of solvent and the concentrate is diluted to the desired concentration with water.
Vessels are filled with sand, active compound solution, an egg/larvae suspension of the southern root-knot nematode (Meloidogyne incognita) and lettuce seeds. The lettuce seeds germinate and the plants develop. The galls develop on the roots.
After 14 days, the nematicidal efficacy in % is determined by the formation of galls. 100% means that no galls were found; 0% means that the number of galls on the treated plants corresponds to the untreated control.

[5] = tested on: Ctenocephalides felis; test: Ctenocephalides felis oral test; conditions: 48 h, 100 ppm in citrated cattle blood, adult cat fleas, after 2 days, read-out: efficacy (kill)
Method: Ctenocephalides felis—Oral Test
(§1) Solvent: Dimethyl Sulfoxide
To produce a suitable active compound formulation, 10 mg of active compound are mixed with 0.5 ml of dimethyl sulfoxide. Dilution with citrated cattle blood gives the desired concentration.
About 20 unfed adult cat fleas (Ctenocephalides felis) are placed into a chamber which is closed at the top and bottom with gauze. A metal cylinder whose bottom end is closed with parafilm is placed onto the chamber. The cylinder contains the blood/active compound formulation, which can be imbibed by the fleas through the parafilm membrane.
After 2 days, the kill in % is determined. 100% means that all of the fleas have been killed; 0% means that none of the fleas have been killed.

[6] = tested on: Musca domestica; test: Musca domestica test; conditions: 100 ppm, adult houseflies, after 2 days
Method: as §1
To produce a suitable active compound formulation, 10 mg of active compound are mixed with 0.5 ml of dimethyl sulfoxide, and the concentrate is diluted with water to the desired concentration.
Vessels containing a sponge treated with sugar solution and the desired concentration of active compound formulation are populated with 10 adult houseflies (Musca domestica).
After 2 days, the kill in % is determined. 100% means that all of the flies have been killed; 0% means that none of the flies have been killed.

[7] = tested on: Phaedon cochleariae; test: Phaedon cochleariae spray test; conditions: foliar, 168 h, Chinese cabbage leaf discs, after 7 days, read-out: efficacy (beetle larvae killed)
Method: Phaedon cochleariae—Spray Test Solvent: 78.0 parts by weight of acetone • • 1.5 parts by weight of dimethylformamide Emulsifier: alkylaryl polyglycol ether
To produce a suitable active compound formulation, 1 part by weight of active compound is dissolved using the stated parts by weight of solvent and made up with water containing an emulsifier concentration of 1000 ppm until the desired concentration is attained. To produce further test concentrations, the formulation is diluted with emulsifier-containing water.
Discs of Chinese cabbage leaves (Brassica pekinensis) are sprayed with an active compound formulation of the desired concentration and, after drying, populated with larvae of the mustard beetle (Phaedon cochleariae).
After 7 days, the efficacy in % is determined. 100% means that all the beetle larvae have been killed; 0% means that no beetle larvae have been killed.

| SMILES | pest or weed control at 5 µg/cm2 [1] | pest or weed control at 100 g/ha [2] | pest or weed control at 100 g/ha [3] | pest or weed control at 20 ppm [4] | also measured |
| --- | --- | --- | --- | --- | --- |
| CNc1nc(-c2ccc(C=NN=C3SCC(=O)N3c3cc(OC)ccc3C(C)C)cc2)nn1-c1ccc(OC(F)(F)F)cc1 [Compound I-090] | 100% | 100% | 100% | – | – |
| CC(C)c1ccccc1N1C(=O)CSC1=NN=Cc1ccc(-c2nc(N)n(-c3ccc(OC(F)(F)F)cc3)n2)cc1 [Compound I-056] | – | 100% | 100% | 90% | pest or weed control at 500 g/ha [3]: 100% |
| CNc1nc(-c2ccc(C=NN=C3SCCCN3c3ccccc3C(C)C)cc2)nn1-c1ccc(OC(F)(F)F)cc1 [Compound I-117] | 100% | 100% | 100% | – | – |
| CNc1nc(-c2ccc(NC(=O)N=C3SCC(=O)N3c3cc(OC)ccc3C(C)C)cc2)nn1-c1ccc(OC(F)(F)C(F)(F)F)cc1 [Compound I-083] | 90% | 100% | 100% | – | – |
| CC(C)Nc1nc(-c2ccc(C=NNC(=S)Nc3ccccc3C(C)C)cc2)nn1-c1ccc(OC(F)(F)F)cc1 [Compound I-052] | – | 100% | 100% | 100% | – |
| CCN(CC)c1nc(-c2ccc(C=NNC(=S)Nc3ccccc3C(C)C)cc2)nn1-c1ccc(OC(F)(F)F)cc1 [Compound I-020] | – | 100% | – | 100% | pest or weed control at 125 g/ha [3]: 80%; pest or weed control at 500 g/ha [3]: 100% |
| CCO[C@@H]1[C@@H](OC)[C@H](C)O[C@@H](OC(=O)Nc2ccc(-c3nc(NC(=O)C4CC4)n(-c4ccc(OC(F)(F)C(F)(F)F)cc4)n3)cc2)[C@@H]1OC [Compound I-002] | – | 100% | – | – | pest or weed control at 100 ppm [5]: 100%; efficacy (kill) [6]: 90%; pest or weed control at 500 g/ha [2]: 100%; pest or weed control at 100 g/ha [7]: 83%; pest or weed control at 500 g/ha [7]: 100% |
| CC(=O)Nc1nc(-c2ccc(C=NNC(=S)Nc3ccccc3C(C)C)cc2)nn1-c1ccc(OC(F)(F)F)cc1 [Compound I-009] | 100% | 100% | – | – | pest or weed control at 100 ppm [5]: 100%; pest or weed control at 100 g/ha [7]: 100% |
| CC(C)Nc1nc(-c2ccc(C=NN=C3SCC(=O)N3c3ccccc3C(C)C)cc2)nn1-c1ccc(OC(F)(F)F)cc1 [Compound I-048] | – | – | – | 90% | – |
| CNc1nc(-c2cc(F)c(C=NNC(=S)Nc3ccccc3C(C)C)c(F)c2)nn1-c1ccc(OC(F)(F)F)cc1 [Compound I-107] | – | 100% | 100% | 90% | – |
| CNc1nc(-c2ccc(C=NN=C3SCC(=O)N3c3ccccc3C(C)C)c(F)c2)nn1-c1ccc(OC(F)(F)F)cc1 [Compound I-105] | – | 100% | 100% | 90% | – |
| CNc1nc(-c2cc(F)c(C=NN=C3SCC(=O)N3c3ccccc3C(C)C)cc2F)nn1-c1ccc(OC(F)(F)F)cc1 [Compound I-111] | – | 100% | 100% | 100% | – |
| CNc1nc(-c2ccc(C=NNC(=S)Nc3ccccc3C(C)C)c(F)c2)nn1-c1ccc(OC(F)(F)F)cc1 [Compound I-104] | – | 100% | 100% | 90% | – |
| CO[C@@H]1[C@@H](OC)[C@H](C)O[C@@H](OC(=O)Nc2ccc(-c3nc(NC(C)=O)n(-c4ccc(OC(F)(F)C(F)(F)F)cc4)n3)cc2)[C@@H]1OC [Compound I-008] | – | 100% | – | – | pest or weed control at 100 ppm [5]: 100%; efficacy (kill) [6]: 80%; pest or weed control at 500 g/ha [2]: 100%; pest or weed control at 100 g/ha [7]: 100%; pest or weed control at 500 g/ha [7]: 100% |
| CC(C)c1ccccc1NC(=S)NN=Cc1ccc(-c2nc(NC3CC3)n(-c3ccc(OC(F)(F)F)cc3)n2)cc1 [Compound I-051] | – | 100% | 100% | 90% | pest or weed control at 500 g/ha [3]: 100% |
| CNc1nc(-c2ccc(C=NNC(=S)Nc3ccccc3C(C)C)cc2Cl)nn1-c1ccc(OC(F)(F)F)cc1 [Compound I-108] | – | 100% | 100% | 90% | – |
| CCNc1nc(-c2ccc(C=NN=C3SCC(=O)N3c3ccccc3C(C)C)cc2)nn1-c1ccc(OC(F)(F)F)cc1 [Compound I-047] | – | – | – | 90% | – |
| CC(=O)Nc1nc(-c2ccc(C=NN=C3SCC(=O)N3c3ccccc3C(C)C)cc2)nn1-c1ccc(OC(F)(F)F)cc1 [Compound I-032] | 80% | 100% | – | – | pest or weed control at 125 g/ha [3]: 100%; pest or weed control at 500 g/ha [3]: 100% |
| CNc1nc(-c2ccc(NC(=O)N=C3SCC(=O)N3c3cc(C)ccc3C(C)C)cc2)nn1-c1ccc(OC(F)(F)C(F)(F)F)cc1 [Compound I-079] | 100% | 100% | 100% | – | – |
| CC(=O)Nc1nc(-c2ccc(C(C)=NNC(=S)Nc3ccccc3C(C)C)cc2)nn1-c1ccc(OC(F)(F)F)cc1 [Compound I-017] | – | 100% | – | 90% | pest or weed control at 100 ppm [5]: 95%; pest or weed control at 100 g/ha [7]: 100% |
| CNc1nc(-c2ccc(C=NN=c3scc(C)n3-c3ccccc3C(C)C)cc2)nn1-c1ccc(OC(F)(F)F)cc1 [Compound I-097, 3-[4-({[3-(2-isopropylphenyl)-4-methyl-1,3-thiazol-2(3H)-ylidene]hydrazono}methyl)phenyl]-N-methyl-1-[4-(trifluoromethoxy)phenyl]-1H-1,2,4-triazol-5-amine] | 100% | 83% | 100% | – | – |
| CNc1nc(-c2ccc(C=NNC(=S)Nc3ccccc3C(C)C)cc2F)nn1-c1ccc(OC(F)(F)F)cc1 [Compound I-109] | – | 100% | 100% | 90% | – |
